The supplement of paper PMC10331698
± gives the standard deviation of the averaged measurements.

Assays:
Assay in all cases: level (log10 ratio to DMSO vehicle control); higher = higher biomarker level / cell amount than vehicle control
[1] = compound: Cc1ccc(S(=O)(=O)OCC(F)(F)C(F)(F)C(F)(F)C(F)(F)C(F)(F)C(F)F)cc1 [1H,1H,7H-Perfluoroheptyl 4-methylbenzenesulfonate]; conditions: in DMSO
Method: (§1)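 BioMAP Diversity Plus panel of 12 human primary cell co-culture systems (3C, 4H, LPS, SAg, BT, BF4T, BE3C, CASM3C, HDF3CGF, KF3CT, MyoF, Mphg). Compounds were added 1 h before stimulation and left for 24 h (MyoF 48 h; BT 72 h for soluble read-outs or 6 d for IgG). Biomarkers were read by ELISA, cytotoxicity by SRB, PBMC viability and proliferation by Alamar Blue. Each well value was divided by the mean of 8 DMSO control wells on the same plate and log10 transformed; duplicate blinded samples were tested at 4 concentrations.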

[2] = compound: FC(F)(I)C(F)(F)C(F)(F)C(F)(F)C(F)(F)C(F)(F)I [1,6-Diiodoperfluorohexane]; conditions: 6700 nM; in DMSO
Method: as §1

[3] = compound: O=C(O)C(F)(F)C(F)(F)C(F)(F)C(F)(F)C(F)(F)C(F)(F)C(F)(F)F [Ammonium perfluorooctanoate]; conditions: in DMSO
Method: as §1

[4] = compound: O=S(=O)(OCC(F)(F)F)C(F)(F)C(F)(F)C(F)(F)C(F)(F)F [2,2,2-Trifluoroethyl perfluorobutanesulfonate]; conditions: in DMSO
Method: as §1

Perfluoropinacol = compound: OC(C(F)(F)F)(C(F)(F)F)C(O)(C(F)(F)F)C(F)(F)F [Perfluoropinacol]; conditions: in DMSO
Method: as §1

[5] = compound: OCC(F)(F)C(F)(F)C(F)(F)C(F)(F)C(F)(F)C(F)(F)C(F)(F)C(F)(F)C(F)(F)C(F)(F)C(F)(F)F [11:1 Fluorotelomer alcohol]; conditions: in DMSO
Method: as §1

[6] = compound: OCC(F)(F)C(F)(F)C(F)(F)C(F)(F)C(F)(F)C(F)(F)C(F)(F)C(F)(F)CO [1H,1H,10H,10H-Perfluorodecane-1,10-diol]; conditions: in DMSO
Method: as §1

Row | Test System | level (log10) ([1]; 6700 nM) | level (log10) ([1]; 20000 nM) | level (log10) ([1]; 60000 nM) | level (log10) [2] | level (log10) ([3]; 6700 nM) | level (log10) ([3]; 20000 nM) | level (log10) ([3]; 60000 nM) | level (log10) ([4]; 6700 nM) | level (log10) ([4]; 20000 nM) | level (log10) ([4]; 60000 nM) | level (log10) (Perfluoropinacol; 6700 nM) | level (log10) (Perfluoropinacol; 20000 nM) | level (log10) ([5]; 1100 nM) | level (log10) ([5]; 3300 nM) | level (log10) ([5]; 10000 nM) | level (log10) ([6]; 6700 nM) | level (log10) ([6]; 20000 nM) | level (log10) ([6]; 60000 nM)
1 | KF3CT:uPA | 0.006 ± 0.021 | -0.036 ± 0.023 | -0.0335 ± 0.022 | -0.002 | 0.0125 ± 0.012 | 0.006 ± 0.017 | 0.001 ± 0.013 | -0.0085 ± 0.0021 | -0.043 ± 0.079 | -0.075 ± 0.0042 | 0.0065 ± 0.035 | 0.019 ± 0.021 | -0.0115 ± 0.015 | -0.0335 ± 0.00071 | -0.023 ± 0.016 | 0.007 ± 0.0042 | 0.009 ± 0.0071 | -0.021
2 | CASM3C:M-CSF | -0.024 ± 0.0028 | -0.0445 ± 0.013 | 0.007 ± 0.051 | -0.042 | -0.0045 ± 0.0021 | 0.011 ± 0.028 | 0.015 ± 0.05 | -0.011 ± 0.0057 | 0.004 ± 0.0042 | 0.0365 ± 0.03 | 0.0505 ± 0.0021 | 0.0315 ± 0.0092 | -0.026 ± 0.044 | 0.006 ± 0.031 | 0.017 ± 0.0099 | -0.052 ± 0.027 | -0.054 ± 0.014 | -0.065
3 | MyoF:Collagen I | -0.001 ± 0.0028 | 0.019 ± 0.0099 | 0.001 ± 0.016 | -0.444 | -0.006 ± 0.0014 | 0.0025 ± 0.013 | -0.0125 ± 0.015 | -0.0215 ± 0.0092 | -0.0045 ± 0.03 | -0.043 ± 0.023 | 0.044 | -0.006 ± 0.0099 | 0.051 ± 0.047 | 0.0475 ± 0.021 | 0.0435 ± 0.013 | -0.0105 ± 0.015 | -0.0275 ± 0.013 | -0.109
4 | HDF3CGF:CCL2/MCP-1 | -0.0645 ± 0.026 | -0.108 ± 0.013 | -0.091 ± 0.0042 | -0.68 | -0.0285 ± 0.0092 | -0.0605 ± 0.0078 | -0.068 ± 0.014 | -0.0125 ± 0.021 | 0.0255 ± 0.021 | -0.0205 ± 0.033 | 0.0595 ± 0.0064 | 0.09 ± 0.0085 | 0.0305 ± 0.033 | 0.0075 ± 0.0064 | 0.0095 ± 0.015 | -0.01 | -0.0565 ± 0.036 | -0.724
5 | CASM3C:CD87/uPAR | -0.03 ± 0.024 | -0.02 ± 0.016 | -0.004 ± 0.0099 | 0.001 | 0.003 ± 0.03 | 0.008 ± 0.0028 | 0.0045 ± 0.023 | -0.047 ± 0.064 | -0.0215 ± 0.059 | -0.048 ± 0.033 | -0.0245 ± 0.015 | -0.107 ± 0.018 | 0.0055 ± 0.025 | -0.004 ± 0.021 | 0.0085 ± 0.032 | -0.024 ± 0.016 | -0.033 ± 0.031 | -0.116
6 | MyoF:alpha-SM Actin | -0.052 ± 0.011 | -0.0625 ± 0.022 | -0.0765 ± 0.019 | -0.486 | -0.0145 ± 0.0078 | -0.016 ± 0.0071 | -0.0295 ± 0.04 | -0.0265 ± 0.025 | -0.0175 ± 0.047 | -0.0235 ± 0.005 | -0.004 ± 0.0028 | -0.14 ± 0.035 | -0.0025 ± 0.015 | -0.0195 ± 0.03 | 0.0045 ± 0.018 | -0.0025 ± 0.019 | -0.041 ± 0.03 | -0.395
7 | HDF3CGF:MMP-1 | 0.024 ± 0.0014 | 0.0535 ± 0.016 | 0.066 ± 0.0014 | -0.303 | 0.027 ± 0.0085 | -0.002 ± 0.0099 | -0.027 ± 0.062 | 0.0125 ± 0.0078 | 0.022 ± 0.0085 | 0.0405 ± 0.0092 | 0.024 ± 0.023 | 0.017 ± 0.014 | -0.011 ± 0.0057 | -0.042 ± 0.0014 | -0.0255 ± 0.035 | 0.0025 ± 0.00071 | 0.005 ± 0.018 | -0.299
8 | MyoF:bFGF | -0.0005 ± 0.0021 | 0.012 ± 0.0071 | 0.009 ± 0.017 | -0.127 | 0 ± 0.013 | -0.007 ± 0.014 | 0.0015 ± 0.015 | -0.015 ± 0.0042 | -0.0015 ± 0.03 | -0.0195 ± 0.00071 | -0.0075 ± 0.012 | -0.0225 ± 0.0092 | 0.002 ± 0.0071 | 0.008 ± 0.014 | 0.004 ± 0.021 | -0.007 ± 0.011 | 0.0005 ± 0.00071 | 0.005
9 | CASM3C:CCL2/MCP-1 | -0.0075 ± 0.0035 | -0.02 ± 0.0057 | 0.011 ± 0.025 | -0.006 | 0.008 ± 0.017 | -0.004 ± 0.0014 | 0.051 ± 0.033 | -0.0155 ± 0.0035 | -0.0105 ± 0.005 | 0.0065 ± 0.0035 | 0.0185 ± 0.013 | 0.096 ± 0.017 | -0.01 ± 0.024 | -0.0055 ± 0.012 | 0.012 ± 0.025 | 0 ± 0.0028 | -0.027 ± 0.0028 | 0.02
10 | BE3C:SRB | -0.006 ± 0.0028 | -0.008 ± 0.0042 | -0.0145 ± 0.0035 | -0.005 | -0.0045 ± 0.005 | -0.003 | -0.0145 ± 0.0078 | 0 ± 0.0071 | 0.004 ± 0.0042 | 0.005 | -0.0115 ± 0.0035 | -0.0285 ± 0.00071 | -0.03 ± 0.014 | -0.0485 ± 0.005 | -0.0235 ± 0.0064 | -0.003 | -0.0105 ± 0.00071 | -0.024
11 | KF3CT:TIMP-2 | -0.0015 ± 0.005 | 0.0025 ± 0.029 | 0.017 ± 0.021 | -0.022 | -0.006 ± 0.0028 | -0.011 ± 0.018 | 0.0065 ± 0.025 | -0.049 ± 0.0057 | -0.0215 ± 0.049 | -0.0495 ± 0.00071 | 0.013 ± 0.0085 | 0.0745 ± 0.0064 | -0.014 ± 0.0028 | -0.0405 ± 0.013 | 0.002 ± 0.016 | -0.001 ± 0.011 | 0.011 ± 0.0099 | -0.133
